Results published in the supplement of paper PMC10307832.

What was measured:
Experiment in all cases: relative viability (nuclei count vs DMSO), 5 days (fraction); higher = more cells survive
Staurosporine + Olaparib = compound: CN[C@@H]1C[C@H]2O[C@@](C)([C@@H]1OC)n1c3ccccc3c3c4c(c5c6ccccc6n2c5c31)C(=O)NC4 [Staurosporine] + O=C(c1cc(Cc2n[nH]c(=O)c3ccccc23)ccc1F)N1CCN(C(=O)C2CC2)CC1 [Olaparib] (partner 8 µM)
Summary of the method: (§1)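 Medians of duplicate plates are given as relative viability. That measure is the nuclei count in treated wells divided by the count in vehicle wells. Counts were taken on 4× images of lung cancer cell lines in 1536-well plates, 5 days after pin-tool dosing the day after seeding with one drug alone or a fixed anchor-drug dose plus five library-drug doses (not always all listed) in √10 steps.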

[1] = compound: O=c1[nH]cc(F)c(=O)[nH]1 [5-Fluorouracil] + Nc1ncn([C@H]2C[C@H](O)[C@@H](CO)O2)c(=O)n1 [Decitabine] (partner 2 µM)
Summary of the method: as §1

[2] = compound: O=c1[nH]cc(F)c(=O)[nH]1 [5-Fluorouracil] + CS(=O)(=O)CCNCc1ccc(-c2ccc3ncnc(Nc4ccc(OCc5cccc(F)c5)c(Cl)c4)c3c2)o1 [Lapatinib] (partner 2 µM)
Summary of the method: as §1

[3] = compound: CN[C@@H]1C[C@H]2O[C@@](C)([C@@H]1OC)n1c3ccccc3c3c4c(c5c6ccccc6n2c5c31)C(=O)NC4 [Staurosporine] + CCNC(=O)c1noc(-c2cc(C(C)C)c(O)cc2O)c1-c1ccc(CN2CCOCC2)cc1 [Luminespib] (partner 0.01 µM)
Summary of the method: as §1

Row | Cell Line | relative viability (Staurosporine + Olaparib; first compound 0.005 µM) | relative viability (Staurosporine + Olaparib; first compound 0.01581 µM) | relative viability (Staurosporine + Olaparib; first compound 0.05 µM) | relative viability (Staurosporine + Olaparib; first compound 0.1581 µM) | relative viability (Staurosporine + Olaparib; first compound 0.5 µM) | relative viability ([1]; first compound 0.02 µM) | relative viability ([1]; first compound 0.2 µM) | relative viability ([1]; first compound 0.6325 µM) | relative viability ([1]; first compound 2 µM) | relative viability ([2]; first compound 0.02 µM) | relative viability ([2]; first compound 0.2 µM) | relative viability ([2]; first compound 0.6325 µM) | relative viability ([2]; first compound 2 µM) | relative viability ([3]; first compound 0.005 µM) | relative viability ([3]; first compound 0.01581 µM) | relative viability ([3]; first compound 0.05 µM) | relative viability ([3]; first compound 0.1581 µM) | relative viability ([3]; first compound 0.5 µM)
1 | NCI-H1915 | 0.214 | 0.124 | 0.159 | 0.0952 | 0.0708 | 0.248 | 0.272 | 0.278 | 0.256 | 0.908 | 0.999 | 0.97 | 0.724 | 0.824 | 0.247 | 0.207 | 0.105 | 0.0895
2 | NCI-H1944 | 0.38 | 0.226 | 0.284 | 0.273 | 0.261 | 0.472 | 0.399 | 0.268 | 0.183 | 0.843 | 0.908 | 0.474 | 0.268 | 0.928 | 0.507 | 0.41 | 0.44 | 0.187
3 | NCI-H1975 | 0.306 | 0.225 | 0.165 | 0.107 | 0.104 | 0.449 | 0.381 | 0.28 | 0.206 | 0.879 | 1.09 | 0.495 | 0.333 | 0.159 | 0.155 | 0.131 | 0.169 | 0.146
4 | NCI-H1993 | 0.941 | 0.73 | 0.717 | 0.497 | 0.313 | 0.692 | 0.595 | 0.541 | 0.46 | 0.706 | 0.765 | 0.65 | 0.591 | 0.75 | 0.532 | 0.51 | 0.494 | 0.303
5 | NCI-H2009 | 0.532 | 0.248 | 0.0909 | 0.112 | 0.0765 | 0.384 | 0.404 | 0.372 | 0.425 | 0.941 | 0.919 | 0.764 | 0.812 | 0.357 | 0.271 | 0.17 | 0.114 | 0.149
6 | NCI-H2023 | 0.265 | 0.192 | 0.117 | 0.0758 | 0.0558 | 0.271 | 0.141 | 0.106 | 0.0886 | 0.719 | 0.234 | 0.0995 | 0.113 | 0.343 | 0.228 | 0.109 | 0.088 | 0.045
7 | NCI-H2085 | 0.694 | 0.471 | 0.556 | 0.398 | 0.344 | 0.516 | 0.567 | 0.657 | 0.526 | 0.654 | 0.957 | 0.923 | 0.704 | 0.39 | 0.315 | 0.2 | 0.227 | 0.171
8 | NCI-H2087 | 0.48 | 0.414 | 0.217 | 0.0849 | 0.0689 | 0.244 | 0.295 | 0.271 | 0.224 | 1.03 | 1.22 | 0.748 | 0.548 | 0.151 | 0.139 | 0.112 | 0.112 | 0.0949
9 | NCI-H2126 | 0.89 | 0.634 | 0.62 | 0.468 | 0.4 | 0.518 | 0.306 | 0.28 | 0.258 | 0.801 | 0.444 | 0.321 | 0.281 | 0.547 | 0.318 | 0.252 | 0.207 | 0.207
10 | NCI-H2170 | 0.617 |  | 0.455 | 0.223 | 0.165 | 0.501 | 0.451 | 0.439 | 0.328 | 0.282 | 0.317 | 0.273 | 0.27 | 0.587 |  | 0.463 | 0.238 | 0.148
11 | NCI-H2347 | 0.481 | 0.319 | 0.39 | 0.371 | 0.292 | 0.587 | 0.618 | 0.441 | 0.407 | 1.07 | 0.796 | 0.48 | 0.436 | 0.4 | 0.262 | 0.216 | 0.228 | 0.263
12 | NCI-H2405 | 0.204 | 0.179 | 0.14 | 0.122 | 0.0873 | 0.734 | 0.741 | 0.738 | 0.661 | 1.06 | 1.22 | 1.06 | 0.63 | 0.282 | 0.148 | 0.0814 | 0.112 | 0.0639
13 | NCI-H3122 | 0.575 |  | 0.481 |  | 0.281 | 0.432 | 0.447 | 0.304 | 0.214 | 0.994 | 0.903 | 0.338 | 0.246 | 0.0697 |  | 0.0639 | 0.0502 | 0.0521
14 | PC-3 [JPC-3] | 1.03 | 0.603 | 0.569 | 0.385 | 0.332 | 0.851 | 0.873 | 0.779 | 0.75 | 0.479 | 0.48 | 0.485 | 0.476 | 0.628 | 0.474 | 0.319 | 0.323 | 0.272
15 | PC-14 | 0.147 | 0.0797 | 0.042 | 0.0556 | 0.043 | 0.265 | 0.229 | 0.25 | 0.275 | 0.305 | 0.433 | 0.327 | 0.292 | 0.11 | 0.101 | 0.103 | 0.132 | 0.118
16 | RERF-LC-KJ | 0.726 | 0.537 | 0.304 | 0.228 | 0.188 | 0.66 | 0.762 | 0.776 | 0.736 | 0.903 | 0.824 | 0.846 | 0.704 | 0.97 | 0.671 | 0.266 | 0.222 | 0.237
17 | SK-LU-1 | 0.337 | 0.172 | 0.156 | 0.128 | 0.13 | 0.636 | 0.692 | 0.592 | 0.548 | 0.904 | 0.956 | 0.846 | 0.704 | 0.156 | 0.117 |  | 0.117 | 0.108
18 | SK-MES-1 | 0.299 | 0.192 | 0.158 | 0.132 | 0.156 | 0.339 | 0.352 | 0.323 | 0.294 | 0.471 | 0.494 | 0.373 | 0.357 |  | 0.204 | 0.121 | 0.149 | 0.124
